Here are results for 48 molecules from US8841301B2, “Selective NR2B antagonists” (Bristol-Myers Squibb Company, priority 2011, dated 2014).

Read-outs that look alike come from different tables or passages of the source.

This experiment addresses hNR2B (Homo sapiens, UniProt Q05586+Q13224). Put plainly: Electrophysiology NMDA receptor experiments: two electrode voltage-clamp in Xenopus laevis oocytes expressing GluN1/GluN2 subunits. It is filed as cell-based. The note with it: oocytes voltage clamped at −40 mV, 50 μM glutamate, 30 μM glycine. The protocol:
Electrophysiology NMDA Receptor Experiments.
Stage V and VI oocytes were surgically removed from the ovaries of large, well-fed and healthy Xenopus laevis anesthetized with 3-amino-benzoic acid ethyl ester (3 gm/l). Clusters of isolated oocytes were incubated with 292 U/ml Worthington (Freehold, N.J.) type IV collagenase or 1.3 mg/ml collagenase (Life Technologies, Gaithersburg, Md.; 17018-029) for 2 hr in Ca^2+-free solution comprised of (in mM) 115 NaCl, 2.5 KCl, and 10 HEPES, pH 7.5, with slow agitation to remove the follicular cell layer. Oocytes were then washed in the same solution supplemented with 1.8 mM CaCl2 and maintained in Barth's solution comprised of (in mM): 88 NaCl, 1 KCl, 2.4 NaHCO3, 10 HEPES, 0.82 MgSO4, 0.33 Ca(NO3)2, and 0.91 CaCl2 and supplemented with 100 μg/ml gentamycin, 10 μg/ml streptomycin, and 10 μg/ml penicillin. Oocytes were manually defolliculated and injected within 24 hrs of isolation with 3-5 ng of human GluN1 subunit cRNA and 7-10 ng of human GluN2 cRNA subunit in a 50 nl volume, and incubated in Barth's solution at 18° C. for 2-7 d. Glass injection pipettes had tip sizes ranging from 10-20 microns, and were backfilled with mineral oil. cRNA was synthesized from linearized template cDNA for rat glutamate receptor subunits according to manufacturer specifications (Ambion).
Two electrode voltage-clamp recordings were made 2-7 days post-injection. Oocytes were placed in a dual-track plexiglass recording chamber with a single perfusion line that splits in a Y-configuration to perfuse two oocytes. Dual recordings were made at room temperature (23° C.) using two Warner OC725B two-electrode voltage clamp amplifiers, arranged as recommended by the manufacturer. Glass microelectrodes (1-10 Megaohms) were filled with 300 mM KCl (voltage electrode) or 3 M KCl (current electrode). The bath clamps communicated across silver chloride wires placed into each side of the recording chamber, both of which were assumed to be at a reference potential of 0 mV. Oocytes were perfused with a solution comprised of (in mM) 90 NaCl, 1 KCl, 10 HEPES, […] and 0.5 BaCl2; pH 7.4, adjusted by addition of NaOH. Oocytes were recorded under voltage clamp at −40 mV. Final concentrations for glutamate and glycine were 50 μM and 30 μM, respectively. Concentration-response curves for experimental compounds were obtained by applying in successive fashion maximal glutamate/glycine, followed by glutamate/glycine plus variable concentrations of experimental compounds. Dose response curves consisting of four to eight concentrations were obtained in this manner. The baseline leak current at −40 mV was measured before and after recording, and the full recording linearly corrected for any change in leak current. The level of inhibition by applied experimental compounds was expressed as a percent of the initial glutamate response, and averaged together across oocytes from multiple experiments. Results were pooled, and the average percent responses at antagonist concentrations were fit by the equation, Percent Response=(100−minimum)/(1+([conc]/IC50)^nH)+minimum where minimum is the residual percent response in saturating concentration of the experimental compounds, IC50 is the concentration of antagonist that causes half of the achievable inhibition, and nH is a slope factor describing steepness of the inhibition curve. […]
For NMDA receptor subtype selectivity experiments human GluN1/GluN2A, GluN1/GluN2C, and GluN1/GluN2D cRNAs were expressed in Xenopus laevis as described above. Here, 10 μM concentrations of the antagonist was perfused with 50 μM glutamate and 30 μM glycine onto the oocyte for two min and the remaining current in the presence of the antagonist was compared to the maximal current obtained with 50 μM glutamate and 30 μM glycine alone (defined as 100%). When IC50 determinations were made against other NMDA receptor subtypes the protocol as described above was followed. […]

Sequence of hNR2B (Q13224 27-1484, other chains not shown): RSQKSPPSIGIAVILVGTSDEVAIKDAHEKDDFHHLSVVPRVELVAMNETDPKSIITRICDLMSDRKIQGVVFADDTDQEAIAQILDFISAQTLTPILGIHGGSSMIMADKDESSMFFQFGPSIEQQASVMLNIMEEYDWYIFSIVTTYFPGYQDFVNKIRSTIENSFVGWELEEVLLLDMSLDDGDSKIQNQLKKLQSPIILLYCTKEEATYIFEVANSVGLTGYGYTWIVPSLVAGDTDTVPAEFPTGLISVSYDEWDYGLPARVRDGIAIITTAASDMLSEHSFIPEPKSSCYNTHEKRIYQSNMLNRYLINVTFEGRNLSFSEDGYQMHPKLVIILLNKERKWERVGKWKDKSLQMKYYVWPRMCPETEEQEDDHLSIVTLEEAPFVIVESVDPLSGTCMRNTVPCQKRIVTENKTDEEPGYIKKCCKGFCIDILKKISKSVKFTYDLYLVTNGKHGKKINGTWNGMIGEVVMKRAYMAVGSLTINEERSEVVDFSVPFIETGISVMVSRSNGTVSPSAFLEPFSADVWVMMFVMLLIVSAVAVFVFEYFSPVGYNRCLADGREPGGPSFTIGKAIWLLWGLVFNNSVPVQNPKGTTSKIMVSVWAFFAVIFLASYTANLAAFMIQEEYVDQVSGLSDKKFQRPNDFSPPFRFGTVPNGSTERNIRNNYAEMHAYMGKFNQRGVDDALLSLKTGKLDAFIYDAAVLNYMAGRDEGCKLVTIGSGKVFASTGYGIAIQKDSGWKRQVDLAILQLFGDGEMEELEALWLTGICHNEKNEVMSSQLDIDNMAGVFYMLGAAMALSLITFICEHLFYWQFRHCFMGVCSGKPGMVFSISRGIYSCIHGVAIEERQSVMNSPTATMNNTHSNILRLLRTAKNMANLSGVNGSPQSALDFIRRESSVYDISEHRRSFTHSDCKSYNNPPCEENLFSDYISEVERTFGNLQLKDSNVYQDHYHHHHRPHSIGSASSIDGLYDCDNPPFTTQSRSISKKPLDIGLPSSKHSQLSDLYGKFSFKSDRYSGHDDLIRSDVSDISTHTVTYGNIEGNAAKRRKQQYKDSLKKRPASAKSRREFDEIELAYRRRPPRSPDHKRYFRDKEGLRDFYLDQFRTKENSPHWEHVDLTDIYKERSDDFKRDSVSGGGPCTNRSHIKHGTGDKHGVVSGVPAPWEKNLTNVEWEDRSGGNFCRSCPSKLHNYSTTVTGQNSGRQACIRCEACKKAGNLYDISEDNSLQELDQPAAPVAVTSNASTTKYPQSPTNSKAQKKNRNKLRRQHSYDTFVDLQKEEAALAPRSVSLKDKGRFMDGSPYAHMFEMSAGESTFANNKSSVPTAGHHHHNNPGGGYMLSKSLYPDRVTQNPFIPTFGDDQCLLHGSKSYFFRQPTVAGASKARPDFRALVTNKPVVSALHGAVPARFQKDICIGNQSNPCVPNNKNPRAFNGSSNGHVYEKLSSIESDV

Consider `O=c1ccc2cc(OCc3ccc(NCc4ccc(Cl)cc4)nc3)ccc2[nH]1` [Example 1, 6-((6-(4-chlorobenzylamino)pyridin-3-yl)methoxy)quinolin-2(1H)-one], for which the IC50 is, setting by setting: (read-out: Rating (hNR2B IC50)) less than 200 nM; (read-out: hNR2B IC50) 87 nM.

`O=c1ccc2cc(OCc3ccc(NCc4ccc(Cl)c(Cl)c4)nc3)ccc2[nH]1` [Example 2, 6-((6-(3,4-dichlorobenzylamino)pyridin-3-yl)methoxy)quinolin-2(1H)-one]: the IC50 (read-out: Rating (hNR2B IC50)) is 1000 to 10000 nM and the IC50 (read-out: hNR2B IC50) was more than 3000 nM.

Consider `O=c1ccc2cc(OCc3ccc(Nc4ccc(OC(F)F)cc4)nc3)ccc2[nH]1` [Example 3], for which the IC50 (read-out: Rating (hNR2B IC50)) was less than 200 nM.

For `O=c1ccc2cc(OCc3ccc(NCc4ccc(OC(F)F)cc4)nc3)ccc2[nH]1` [Example 4], the IC50 (read-out: Rating (hNR2B IC50)) was more than 10000 nM.

Turning to `O=c1ccc2cc(OCc3ccc(NCc4ccc(F)c(F)c4)nc3)ccc2[nH]1` [Example 5], the IC50 (read-out: Rating (hNR2B IC50)) lay in the range of 201 to 1000 nM.

For the molecule `O=C1CCc2cc(OCc3ccc(Nc4ccc(OC(F)(F)F)cc4)nc3)cc(F)c2N1` [Example 6], the IC50 (read-out: Rating (hNR2B IC50)) was 1000 to 10000 nM.

For `O=c1ccc2cc(OCc3ccc(NCc4ccc(F)cc4)nc3)ccc2[nH]1` [Example 7], the IC50 (read-out: Rating (hNR2B IC50)) is less than 200 nM.

For the molecule `O=c1ccc2cc(OCc3ccc(NCc4cccc(Cl)c4)nc3)ccc2[nH]1` [Example 8], the IC50 (read-out: Rating (hNR2B IC50)) fell in the range of 1000 to 10000 nM.

For the molecule `O=c1ccc2cc(OCc3ccc(Nc4ccc(OC(F)(F)F)cc4)nc3)ccc2[nH]1` [Example 9], for the setting “read-out: Rating (hNR2B IC50)”, the IC50 was less than 200 nM.

Turning to `Oc1ccc(OCc2ccc(Nc3ccc(OC(F)F)cc3)nc2)cc1` [Example 10], the IC50 reads like this: (read-out: Rating (hNR2B IC50)) less than 200 nM; (read-out: hNR2B IC50) 13 nM.

As to `O=c1ccc2cc(OCc3cccc(Nc4ccc(Cl)cc4)n3)ccc2[nH]1` [Example 11], the IC50 (read-out: Rating (hNR2B IC50)) is less than 200 nM.

Take `Oc1ccc(OCc2cnc(Nc3ccc(Cl)cc3)nc2)cc1` [Example 12, 4-((2-(4-chlorophenylamino)pyrimidin-5-yl)methoxy)phenol]: the IC50 (read-out: hNR2B IC50) worked out at 394 nM.

For the molecule `Oc1ccc(OCc2cnc(Nc3ccc(Cl)c(Cl)c3)nc2)cc1` [Example 13, 4-((2-(3,4-dichlorophenylamino)pyrimidin-5-yl)methoxy)phenol], the IC50 (read-out: hNR2B IC50) came out at 395 nM.

For the molecule `O=c1ccc2cc(OCc3cnc(Nc4ccc(Cl)cc4)nc3)ccc2[nH]1` [Example 14, 6-((2-(4-chlorophenylamino)pyrimidin-5-yl)methoxy)quinolin-2(1H)-one], the IC50 (read-out: hNR2B IC50) was 64 nM.

On to `FC(F)(F)Oc1ccc(Nc2ncc(COc3ccc4[nH]nc(C(F)(F)F)c4c3)cn2)cc1` [Example 15, N-(4-(trifluoromethoxy)phenyl)-5-(((3-(trifluoromethyl)-1H-indazol-5-yl)oxy)methyl)pyrimidin-2-amine], for which the IC50 (read-out: hNR2B IC50) is more than 3000 nM.

`O=c1[nH]c2ccc(OCc3cnc(Nc4ccc(OC(F)F)cc4)nc3)cc2o1` [Example 16, 6-((2-((4-(difluoromethoxy)phenyl)amino)pyrimidin-5-yl)methoxy)benzo[d]oxazol-2(3H)-one]: the IC50 (read-out: hNR2B IC50) was 14 nM.

Regarding `Nc1ncc(OCc2cnc(Nc3ccc(OC(F)F)cc3)nc2)cn1` [Example 17, 5-((2-aminopyrimidin-5-yloxy)methyl)-N-(4-(difluoromethoxy)phenyl)pyrimidin-2-amine], the IC50 (read-out: hNR2B IC50) is more than 1000 nM.

Regarding `COc1nc(Nc2ccc(OC(F)F)cc2)ncc1COc1ccc2[nH]c(=O)ccc2c1` [Example 18, 6-((2-((4-(difluoromethoxy)phenyl)amino)-4-methoxypyrimidin-5-yl)methoxy)quinolin-2(1H)-one], the half-maximal inhibitory concentration (IC50) (read-out: hNR2B IC50) worked out at 5 nM.

Turning to `O=c1ccc2cc(OCc3cnc(NCc4ccc(Cl)cc4)nc3)ccc2[nH]1` [Example 19], for the setting “read-out: Rating (hNR2B IC50)”, the concentration for half-maximal inhibition (IC50) was less than 200 nM.

Regarding `O=c1ccc2cc(OCc3cnc(Nc4ccc(Cl)c(Cl)c4)nc3)ccc2[nH]1` [Example 20], where the note is “read-out: Rating (hNR2B IC50)”, the IC50 is less than 200 nM.

Regarding `O=c1ccc2cc(OCc3cnc(NCc4ccc(Cl)c(Cl)c4)nc3)ccc2[nH]1` [Example 21], the 50% inhibitory concentration (IC50) (read-out: Rating (hNR2B IC50)) is more than 10000 nM.

With `O=c1ccc2cc(OCc3cnc(Nc4ccc(OC(F)F)cc4)nc3)ccc2[nH]1` [Example 22], for the setting “read-out: Rating (hNR2B IC50)”, the IC50 was less than 200 nM.

Turning to `O=c1ccc2cc(OCc3cnc(Nc4ccc(OC(F)(F)F)cc4)nc3)ccc2[nH]1` [Example 23], under “read-out: Rating (hNR2B IC50)”, the IC50 is less than 200 nM.

Regarding `COc1ccc(Nc2ncc(COc3ccc4[nH]c(=O)ccc4c3)cn2)cc1` [Example 24], the IC50 runs as follows: (read-out: Rating (hNR2B IC50)) less than 200 nM; (read-out: hNR2B IC50) 90 nM.

Take `Cc1ccc(Nc2ncc(COc3ccc4[nH]c(=O)ccc4c3)cn2)cc1` [Example 25]: the IC50 is less than 200 nM (read-out: Rating (hNR2B IC50)) and 97 nM (read-out: hNR2B IC50).

With `O=c1ccc2cc(OCc3cnc(NCc4ccc(F)c(F)c4)nc3)ccc2[nH]1` [Example 26], the IC50 was less than 200 nM (read-out: Rating (hNR2B IC50)) and 139 nM (read-out: hNR2B IC50).

In the case of `O=c1ccc2cc(OCc3cnc(NCc4ccc(F)cc4)nc3)ccc2[nH]1` [Example 27], the IC50 reads like this: (read-out: Rating (hNR2B IC50)) less than 200 nM; (read-out: hNR2B IC50) 62 nM.

In the case of `Cc1ccc(Nc2ncc(COc3ccc4[nH]c(=O)ccc4c3)cn2)cc1F` [Example 28], the IC50 (read-out: Rating (hNR2B IC50)) was less than 200 nM and the IC50 (read-out: hNR2B IC50) was 101 nM.

Consider `COc1ccc(Nc2ncc(COc3ccc4[nH]c(=O)ccc4c3)cn2)cc1F` [Example 29], for which, for the setting “read-out: Rating (hNR2B IC50)”, the IC50 was less than 200 nM.

For `O=c1ccc2cc(OCc3cnc(Nc4ccc(F)cc4)nc3)ccc2[nH]1` [Example 30], the IC50 (read-out: Rating (hNR2B IC50)) was less than 200 nM.

Take `O=c1ccc2cc(OCc3cnc(Nc4ccc(F)c(F)c4)nc3)ccc2[nH]1` [Example 31]: the IC50 (read-out: Rating (hNR2B IC50)) is less than 200 nM.

On to `O=c1ccc2cc(OCc3cnc(Nc4ccc(F)c(Cl)c4)nc3)ccc2[nH]1` [Example 32], for which, for the setting “read-out: Rating (hNR2B IC50)”, the IC50 is 201 to 1000 nM.

For the molecule `COc1cc(Nc2ncc(COc3ccc4[nH]c(=O)ccc4c3)cn2)ccc1F` [Example 33], for the setting “read-out: Rating (hNR2B IC50)”, the IC50 was in the range of 1000 to 10000 nM.

Take `O=c1ccc2cc(OCc3cnc(Nc4ccc(OC(F)F)c(Cl)c4)nc3)ccc2[nH]1` [Example 35]: for the setting “read-out: Rating (hNR2B IC50)”, the half-maximal inhibitory concentration (IC50) is less than 200 nM.

As for `COc1ccc(Nc2ncc(COc3ccc4[nH]c(=O)ccc4c3)cn2)cc1Cl` [Example 36], the IC50 (read-out: Rating (hNR2B IC50)) was less than 200 nM.

Regarding `O=c1ccc2cc(OCc3cnc(Nc4ccc(OC(F)F)c(F)c4)nc3)ccc2[nH]1` [Example 37], the IC50 (read-out: Rating (hNR2B IC50)) was less than 200 nM.

With `Cc1cc(Nc2ncc(COc3ccc4[nH]c(=O)ccc4c3)cn2)ccc1OC(F)F` [Example 38], the IC50 (read-out: Rating (hNR2B IC50)) was less than 200 nM.

With `CCc1ccc(Nc2ncc(COc3ccc4[nH]c(=O)ccc4c3)cn2)cc1F` [Example 39], the IC50 (read-out: Rating (hNR2B IC50)) was less than 200 nM.

Consider `CS(=O)(=O)c1ccc(Nc2ncc(COc3ccc4[nH]c(=O)ccc4c3)cn2)cc1` [Example 40], for which the IC50 (read-out: Rating (hNR2B IC50)) was less than 200 nM.

On to `Cc1ccc(Nc2ncc(COc3ccc4[nH]c(=O)ccc4c3)cn2)cc1C` [Example 41], for which, for the setting “read-out: Rating (hNR2B IC50)”, the IC50 is less than 200 nM.

In the case of `Cc1ccc(Nc2ncc(COc3ccc4[nH]c(=O)ccc4c3)cn2)cc1Cl` [Example 42], the IC50 (read-out: Rating (hNR2B IC50)) was less than 200 nM.

Turning to `CCCc1ccc(Nc2ncc(COc3ccc4[nH]c(=O)ccc4c3)cn2)cc1` [Example 43], the half-maximal inhibitory concentration (IC50) (read-out: Rating (hNR2B IC50)) is less than 200 nM.

As for `CC(C)c1ccc(Nc2ncc(COc3ccc4[nH]c(=O)ccc4c3)cn2)cc1` [Example 44], the half-maximal inhibitory concentration (IC50) (read-out: Rating (hNR2B IC50)) is less than 200 nM.

For the molecule `COc1ccc(Nc2ncc(COc3ccc4[nH]c(=O)ccc4c3)cn2)cc1C` [Example 46], the IC50 (read-out: Rating (hNR2B IC50)) is less than 200 nM.

Take `CC(C)(C)c1ccc(Nc2ncc(COc3ccc4[nH]c(=O)ccc4c3)cn2)cc1` [Example 47]: the IC50 (read-out: Rating (hNR2B IC50)) was less than 200 nM.

Consider `COc1ccc(Nc2ncc(COc3ccc4[nH]c(=O)ccc4c3)cn2)cn1` [Example 48], for which the IC50 (read-out: Rating (hNR2B IC50)) is less than 200 nM.

As to `COc1ncc(Nc2ncc(COc3ccc4[nH]c(=O)ccc4c3)cn2)cc1C` [Example 49], the IC50 (read-out: Rating (hNR2B IC50)) was less than 200 nM.

Turning to `O=c1ccc2cc(OCc3cnc(Nc4ccc(OC(F)F)nc4)nc3)ccc2[nH]1` [Example 50], the IC50 (read-out: Rating (hNR2B IC50)) was less than 200 nM.
